ChEMBL document CHEMBL1201862, “PubChem BioAssay data set” (2004)
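Each compound was tested at five concentrations against cells in 96-well plates for 48 hours. Here, GI50 denotes the concentration required for 50% inhibition of growth.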 The source made the active and inactive calls. No stated cut-off is given here; in the data, active = GI50 up to about 1.1 µM and inactive = higher.

How the values were obtained:
Experiment in all cases: growth of human tumour cells (NCI), 48 h
SK-MEL-28 = tested on: SK-MEL-28
MDA-MB-435 = tested on: MDA-MB-435
COLO 205 = tested on: COLO 205
SK-OV-3 = tested on: SK-OV-3
SK-MEL-5 = tested on: SK-MEL-5
RPMI-8226 = tested on: RPMI-8226
786-0 = tested on: 786-0
NCI-H460 = tested on: NCI-H460
HT-29 = tested on: HT-29
PC-3 = tested on: PC-3
MOLT-4 = tested on: MOLT-4
UACC-62 = tested on: UACC-62
CCRF-CEM = tested on: CCRF-CEM
MDA-N = tested on: MDA-N
T47D = tested on: T47D
SF-295 = tested on: SF-295
NCI-H522 = tested on: NCI-H522
HL-60 = tested on: HL-60

Row | SMILES | GI50 (SK-MEL-28) | GI50 (MDA-MB-435) | GI50 (COLO 205) | GI50 (SK-OV-3) | GI50 (SK-MEL-5) | GI50 (RPMI-8226) | GI50 (786-0) | GI50 (NCI-H460) | GI50 (HT-29) | GI50 (PC-3) | GI50 (MOLT-4) | GI50 (UACC-62) | GI50 (CCRF-CEM) | GI50 (MDA-N) | GI50 (T47D) | GI50 (SF-295) | GI50 (NCI-H522) | GI50 (HL-60)
1 | O=C1C(N2CCNCC2)=C(Cl)C(=O)c2ncccc21 | > 10 µM (inactive) | 4.6 µM (inactive) | > 10 µM (inactive) | > 10 µM (inactive) | 5.79 µM (inactive) | 3.37 µM (inactive) | > 10 µM (inactive) | > 10 µM (inactive) | > 10 µM (inactive) | > 10 µM (inactive) | 2.44 µM (inactive) | > 10 µM (inactive) | 8.59 µM (inactive) | 4.47 µM (inactive) | > 10 µM (inactive) | > 10 µM (inactive) | – | –
2 | CCOC(=O)c1sc2nc(SC)nc3c2c1NC(=O)CN3c1cccc(F)c1 | 0.138 µM (active) | 27.5 µM (inactive) | 17.5 µM (inactive) | 20 µM (inactive) | 0.855 µM (active) | 9.12 µM (inactive) | – | 26.4 µM (inactive) | 32.6 µM (inactive) | 17.3 µM (inactive) | 30 µM (inactive) | 30.5 µM (inactive) | – | 29.8 µM (inactive) | – | 16.3 µM (inactive) | 26.5 µM (inactive) | 0.491 µM (active)
3 | N#Cc1c(-c2ccc([N+](=O)[O-])cc2)c(C#N)c(=O)n(NS(=O)(=O)c2ccccc2)c1O | > 100 µM (inactive) | > 100 µM (inactive) | > 100 µM (inactive) | > 100 µM (inactive) | > 100 µM (inactive) | > 100 µM (inactive) | > 100 µM (inactive) | > 100 µM (inactive) | > 100 µM (inactive) | > 100 µM (inactive) | > 100 µM (inactive) | > 100 µM (inactive) | > 100 µM (inactive) | > 100 µM (inactive) | – | > 100 µM (inactive) | > 100 µM (inactive) | > 100 µM (inactive)
4 | COc1cc(C(=O)C2CC3(CCC2(O)c2cc(OC)c(OC)c(OC)c2)CC(=O)Nc2ccccc2C3=O)cc(OC)c1OC (stereo unspecified) | > 100 µM (inactive) | > 100 µM (inactive) | 26.5 µM (inactive) | > 100 µM (inactive) | 21.3 µM (inactive) | – | – | 21.5 µM (inactive) | > 100 µM (inactive) | 42.6 µM (inactive) | 33 µM (inactive) | > 100 µM (inactive) | 37.3 µM (inactive) | > 100 µM (inactive) | 36.6 µM (inactive) | 98.2 µM (inactive) | – | 30.5 µM (inactive)
5 | NCC(=O)N[C@H]1c2ccsc2/C(=N/O)[C@H]1O | > 100 µM (inactive) | > 100 µM (inactive) | > 100 µM (inactive) | > 100 µM (inactive) | > 100 µM (inactive) | – | – | > 100 µM (inactive) | > 100 µM (inactive) | > 100 µM (inactive) | > 100 µM (inactive) | > 100 µM (inactive) | > 100 µM (inactive) | > 100 µM (inactive) | > 100 µM (inactive) | > 100 µM (inactive) | – | > 100 µM (inactive)
6 | OCCN1c2ccccc2Sc2ccccc21 | > 10 µM (inactive) | > 10 µM (inactive) | > 10 µM (inactive) | > 10 µM (inactive) | > 10 µM (inactive) | > 10 µM (inactive) | > 10 µM (inactive) | – | > 10 µM (inactive) | > 10 µM (inactive) | > 10 µM (inactive) | – | – | > 10 µM (inactive) | – | > 10 µM (inactive) | > 10 µM (inactive) | > 10 µM (inactive)
7 | CN(C)N1C(=O)S/C(=C\c2ccc([N+](=O)[O-])cc2)C1=O | > 100 µM (inactive) | > 100 µM (inactive) | > 100 µM (inactive) | > 100 µM (inactive) | > 100 µM (inactive) | – | > 100 µM (inactive) | > 100 µM (inactive) | > 100 µM (inactive) | > 100 µM (inactive) | > 100 µM (inactive) | > 100 µM (inactive) | 55.2 µM (inactive) | > 100 µM (inactive) | 65.5 µM (inactive) | > 100 µM (inactive) | > 100 µM (inactive) | 34 µM (inactive)
8 | CCc1ccc(COC(=O)C2=C(C)NC(C)=C(C(=O)OCc3ccc(CC)cn3)C2C2=COCCO2)nc1 | 18.5 µM (inactive) | 19.5 µM (inactive) | 12.5 µM (inactive) | 16.6 µM (inactive) | 13.3 µM (inactive) | – | 23.2 µM (inactive) | 31.5 µM (inactive) | 21.4 µM (inactive) | 16 µM (inactive) | 12.6 µM (inactive) | 13.5 µM (inactive) | 16.2 µM (inactive) | – | 11.3 µM (inactive) | 24.9 µM (inactive) | 19.5 µM (inactive) | 22.4 µM (inactive)
9 | CN1c2ccccc2SC2C(c3ccccc3)=NOC21 (stereo unspecified) | 31.1 µM (inactive) | – | 22.7 µM (inactive) | 64.1 µM (inactive) | > 10 µM (inactive) | – | 35.4 µM (inactive) | 28.5 µM (inactive) | 30.1 µM (inactive) | 18 µM (inactive) | 30.4 µM (inactive) | 35.1 µM (inactive) | > 100 µM (inactive) | 22.9 µM (inactive) | 21.5 µM (inactive) | 30.7 µM (inactive) | 30.1 µM (inactive) | 53.7 µM (inactive)
